Measurements reported in patent publication US5595999A, “Guanidine derivatives” (Hoffmann-La Roche Inc., priority 1990, dated 1997).

How the values were obtained:
[1] = biological target: trypsin; assay: Inhibition of amidolytic activity of trypsin (chromogenic substrate S-2251); format: biochemical; conditions: S-2251, 200 and 750 μM final concentration, pH 7.8, room temperature
Experimental: (§1) A differential inhibition of thrombin and other serine proteases by the above compounds is desirable in order to obtain compounds having as high a specificity as possible and at the same time to avoid possible side-effects.
(§2) Specific chromogenic peptide substrates can be used to determine the inhibition of the catalytic activity of the above proteases. The inhibition of the amidolytic activity of thrombin and trypsin by the above guanidines was determined as described hereinafter.
(§3) The measurements were carried out on microtiter plates at room temperature. For this, in each well of the plate 150 μl of buffer (50 mM Tris, 100 mM NaCl, 0.1% polyethylene glycol; pH 7.8) were mixed with 50 μl of the inhibitor dissolved in DMSO and diluted in the buffer, and 25 μl of human thrombin (0.5 nM final conc.) were added. After incubation for 10 minutes, the reaction was started by the addition of chromogenic substrate S-2238 (H-D-Phe-Pip-Arg-paranitroaniline from Kabivitrum; 10 or 50 μm final conc.) and the hydrolysis of the substrate was followed spectrophotometrically on a kinetic microliter plate reader for 5 minutes. After graphical presentation of the inhibition curves, the Ki values were determined according to the method described in Biochem. J. 55, 1955, 170-171. The inhibition of trypsin was effected analogously, but using the substrate S-2251 (H-D-Val-Leu-Lys-paranitroaniline) in 200 and 750 μM final concentration.

[2] = biological target: human thrombin (Homo sapiens, UniProt P00734); assay: Inhibition of amidolytic activity of thrombin (chromogenic substrate S-2238); format: biochemical; conditions: human thrombin 0.5 nM final conc., S-2238, pH 7.8, room temperature
Experimental: as §1, §2, §3

[3] = Toxicity in mice upon intravenous administration; conditions: mouse, in vivo
Experimental: The guanidines of formula I have a low toxicity. Thus, the products of Example 8, 13a, 14i and 18f have an LD50 of 30-50mg/kg in mice upon intravenous administration.

| SMILES | Ki [1] | Ki [2] | LD50 [3] |
| --- | --- | --- | --- |
| N=C(N)N1CCCC(CNC(=O)[C@@H](Cc2ccccc2)NS(=O)(=O)c2ccc3ccccc3c2)C1 (stereo partly drawn) [Example 9, (R)-N-[(RS)-1-amidino-3-piperidinylmethyl]-α-(2-naphthylsulfonamido)hydrocinnamide] | 169000 nM | 135 nM | – |
| N=C(N)N1CCCC(CNC(=O)[C@@H](Cc2ccccc2[N+](=O)[O-])NS(=O)(=O)c2ccc3ccccc3c2)C1 (mixture of isomers) [Example 13a, (R)-N-[(RS)-1-Amidino-3-piperidinylmethyl]-α-(2-naphthylsulfonamido)-o-nitrohydrocinnamamide] | 29200 nM | 20.8 nM | 30 to 50 mg/kg |
| N=C(N)N1CCCC(CNC(=O)[C@@H](Cc2c[nH]c3ccccc23)NS(=O)(=O)c2ccccc2[N+](=O)[O-])C1 (mixture of isomers) [Example 14i, (R)-N-[(RS)-1-Amidino-3-piperidinylmethyl]-α-(o-nitrobenzenesulfonamido)indole-3-propionamide] | 38000 nM | 25 nM | 30 to 50 mg/kg |
| N=C(N)N1CCCC(CNC(=O)[C@@H](CN2C(=O)C(=O)c3ccccc32)NS(=O)(=O)c2ccc3ccccc3c2)C1 (some centres unmarked) [Example 8] | 20100 nM | 8.55 nM | 30 to 50 mg/kg |
| N=C(N)N1CCCC(CNC(=O)[C@@H](CC(=O)c2ccccc2N)NS(=O)(=O)c2ccc3ccccc3c2)C1 (stereo partly drawn) [Example 18f, (R)-N-[(RS)-1-Amidino-3-piperidinylmethyl]-3-(o-aminobenzoyl)-2-(naphthylsulfonamido)propionamide] | – | 16 nM | 30 to 50 mg/kg |

The next lines start with results.

| Ki [1] | Ki [2] | SMILES | LD50 [3] |
| --- | --- | --- | --- |
| 6300 nM | 20.7 nM | N=C(N)N1CCC[C@@H](CNC(=O)[C@@H](Cc2c[nH]c3ccccc23)NS(=O)(=O)c2ccc(I)cc2)C1 [Example 17b, (R)-N-[(S)-1-Amidino-3-piperidinylmethyl]-α-(p-iodobenzenesulfonamido)indole-3-propionamide] | – |
| 14800 nM | 26.1 nM | N=C(N)N1CCC[C@@H](CNC(=O)[C@@H](Cc2ccc([N+](=O)[O-])cc2)NS(=O)(=O)c2ccc(I)cc2)C1 [Example 17j, (R)-N-[(S)-1-Amidino-3-piperidinylmethyl]-α-(p-iodo-benzenesulfonamido)-p-nitrohydrocinnamamide] | – |
| – | 41.3 nM | N=C(N)N1CCC[C@@H](CNC(=O)[C@@H](Cc2ccc3ccccc3c2)NS(=O)(=O)c2ccc(I)cc2)C1 [Example 17f, (R)-N-[(S)-1-Amidino-3-piperidinylmethyl]-α-(p-iodobenzenesulfonamido)-2-naphthylpropionamide] | – |
| 10000 nM | 58 nM | N=C(N)N1CCC[C@@H](COC(=O)[C@@H](Cc2c[nH]c3ccccc23)NS(=O)(=O)c2ccc(I)cc2)C1 [Example 17c, N-(p-Iodophenylsulfonyl)-D-tryptophan (R)-1-amidino-3-piperidinylmethyl ester] | – |
